This is an account of results in PubChem BioAssay (NCI).

The structures appear in SMILES notation.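 1) Cells in 96-well plates. 2) Compound, 48 h, 5 concentrations. 3) Linear interpolation between surrounding doses. 4) Unreached endpoint = highest concentration. At the GI50, growth is halved. TGI is the concentration that stops growth completely.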 A value given as a limit tells only on which side of the number the result lay.

Common to all, as to assay: NCI tumour cell line growth inhibition, 48 h
Assay [1] deals with SN12C renal.
Assay [2] deals with HT29 colon.
The test system of assay [3] is SNB-19 CNS.
In assay [4] the test system is U251 CNS.
Assay [5] relates to PC-3 prostate.
Assay [6] concerns NCI/ADR-RES ovarian.
Assay [7] relates to NCI-H460 lung.
Assay [8] relates to UACC-257 melanoma.
The test system of assay [9] is TK-10 renal.
The subject of assay [10] is OVCAR-4 ovarian.

Regarding `O=C(CC1(O)C(=O)N(Cc2ccccc2)c2ccccc21)c1ccc(C(=O)NCC2CCC3(CC2)OOC2(CCCCC2)OO3)cc1` (stereo not given), the GI50 is 1.66 µM in assay [1]; 1.72 µM in [2]; 4.67 µM in assay [3]; 0.774 µM in [4]; 1.58 µM in assay [5]; 1.18 µM in assay [6]. Besides, the GI50 in assay [7] was 1.29 µM; in assay [8], 5.01 µM; in assay [9], 0.835 µM; in [10], 1.95 µM. In addition, the TGI was 3.76 µM in assay [1]; 3.82 µM in assay [2]; 51.8 µM in [3]; 2.17 µM in assay [4]; 4.91 µM in assay [5]; 3.47 µM in assay [6]. The TGI came out at 3.51 µM in assay [7], 22.9 µM in assay [8], 2.24 µM in [9] and 5.35 µM in assay [10].
Turning to `Cn1cc(C2=C(c3cccc(OC[C@@H](O)CO)c3)C(=O)NC2=O)c2ccccc21`, the GI50 in assay [1] is more than 23 µM; in assay [2] it was more than 25 µM; in assay [3], more than 25 µM; in assay [4], more than 15.5 µM; in [5], more than 25 µM; in assay [6] it was more than 25 µM. Further, the GI50 was more than 25 µM in [7], more than 25 µM in [8], more than 25 µM in assay [9] and more than 16.4 µM in assay [10]. The TGI in [1], in assay [2], in [3], in [4], in [5] and in assay [6] was more than 25 µM each time. Moreover, the TGI in assay [7], in assay [8], in [9] and in assay [10] was more than 25 µM throughout.
Take `N#CC1=C(/N=C/c2ccccc2)Oc2c(ccc3ccccc23)C1c1ccccc1` (stereo not given): the GI50 in assay [1] is 0.822 µM; in assay [2] it was 0.37 µM; in [3], 0.702 µM; in assay [4], 0.527 µM; in [5], 0.477 µM; in assay [6] it was 0.285 µM. Besides, the GI50 is 0.386 µM in [7], more than 100 µM in [8], 13.7 µM in assay [9] and 0.698 µM in assay [10]. For the same molecule, the TGI in assay [1] is more than 100 µM; in [2], more than 100 µM; in assay [3], more than 100 µM; in assay [4] it was more than 100 µM; in assay [5] it was more than 100 µM; in assay [6], 1.05 µM. In addition, the TGI in assay [7] was more than 39.3 µM; in [8], more than 100 µM; in assay [9] it was more than 100 µM; in assay [10], more than 100 µM.
With `O=[N+]([O-])c1ccc(N2CCOCC2)c2c1no[n+]2[O-]`, the GI50 in [1] was 1.2 µM; in [2] it was 1.04 µM; in assay [3], 3.74 µM; in assay [4], 0.984 µM; in [5], 1.25 µM; in [6], 1.54 µM. Also, the GI50 in assay [7] was 0.601 µM; in assay [8], 2.76 µM; in assay [9] it was 3.85 µM; in assay [10], 1.38 µM. Moreover, the TGI in assay [1] was 2.85 µM; in [2], 2.8 µM; in [3] it was 16.4 µM; in assay [4], 2.32 µM; in [5] it was 5.53 µM; in assay [6], 12.3 µM. The TGI in assay [7] was 2.07 µM; in [8] it was 10.7 µM; in assay [9], 16.7 µM; in [10], 3.99 µM.
Consider `Nc1nc(Nc2ccccc2SSc2ccccc2Nc2nc(N)nc(C(Cl)(Cl)Cl)n2)nc(C(Cl)(Cl)Cl)n1`, for which the GI50 in assay [1] is 2.46 µM; in assay [2] it was 22.3 µM; in [3] it was 4.41 µM; in [4] it was 2.29 µM; in assay [5], 3.56 µM; in [6], 3.68 µM. The GI50 in assay [7] was 4 µM; in [8], 11.7 µM; in assay [9], 4.85 µM; in assay [10] it was 6.86 µM. The TGI amounted to 7.26 µM in assay [1]; 79.7 µM in assay [2]; 17.8 µM in assay [3]; 5.85 µM in assay [4]; 18.6 µM in [5]; 16.6 µM in [6]. In addition, the TGI in assay [7] was determined as 14.7 µM; in [8], 92.9 µM; in assay [9], 17.2 µM; in [10] it was 45.1 µM.
As for `CC(=O)NCc1cccc(C#Cc2cncnc2Nc2ccc(OCc3cccc(F)c3)c(Cl)c2)c1`, the GI50 in assay [1] was 10.6 µM; in [2] it was 9.19 µM; in [3] it was more than 21.8 µM; in assay [4] it was 11 µM; in [5], 8.37 µM; in [6], 7.76 µM. In addition, the GI50 in [7] is 10.6 µM; in [8] it was 12.3 µM; in assay [9], 1.97 µM; in [10], 12.9 µM. Further, the TGI in assay [1], in [2], in assay [3], in [4], in assay [5] and in assay [6] was more than 25 µM throughout. For the same molecule, the TGI in assay [7] was more than 25 µM; in assay [8], more than 25 µM; in assay [9], more than 20.2 µM; in assay [10], more than 25 µM.
Regarding `COC(=O)c1cncc(/C=C/c2c(C)cc(O)cc2C)c1`, the GI50 in assay [1] was 11.2 µM; in assay [2] it was more than 15.4 µM; in [3], more than 21.9 µM; in assay [4] it was more than 16.7 µM; in assay [5] it was 12.2 µM; in assay [6], 7.3 µM. Besides, the GI50 in assay [7] was 8.95 µM; in [8], 14.6 µM; in assay [9], more than 25 µM; in [10] it was 8.11 µM. For the same molecule, the TGI in assay [1], in [2], in assay [3], in assay [4], in [5] and in assay [6] was more than 25 µM in each case. For the same molecule, the TGI in assay [7], in [8], in assay [9] and in assay [10] was more than 25 µM throughout.
Regarding `COc1cc2nc(-c3cc(F)ccc3O)nc(N[C@@H]3CNC[C@H]3C(C)(C)O)c2cc1OC`, the GI50 in assay [1] is 1.42 µM; in [2], 2 µM; in assay [3], 1.91 µM; in assay [4], 1.62 µM; in [5] it was 2.09 µM; in assay [6], 2.31 µM. In addition, the GI50 in [7] was 1.83 µM; in assay [8] it was 1.69 µM; in assay [9], 1.94 µM; in assay [10], 1.88 µM. Also, the TGI stood at 3.12 µM in assay [1]; 3.85 µM in assay [2]; 4.02 µM in assay [3]; 3.06 µM in [4]; 5.7 µM in assay [5]; 6.09 µM in assay [6]. Further, the TGI worked out at 3.47 µM in [7], 3.15 µM in assay [8], 5.68 µM in assay [9] and 4.65 µM in [10].
With `N#CCCN1C/C(=C/c2ccc(Cl)cc2)C(=O)/C(=C/c2ccc(Cl)cc2)C1`, the GI50 in [1] was 1.44 µM; in [2], 0.238 µM; in assay [3], 1.31 µM; in [4], 0.417 µM; in assay [5], 0.489 µM; in [6] it was 3.4 µM. Also, the GI50 in [7] is 0.707 µM; in [8], 2.05 µM; in assay [9] it was 2.08 µM; in assay [10], 3.01 µM. Further, the TGI in assay [1] turned out to be 3.39 µM; in assay [2], 0.574 µM; in assay [3] it was 2.72 µM; in [4], 1.48 µM; in assay [5], 3.61 µM; in assay [6], 52.2 µM. The TGI was 2.52 µM in [7], 4.38 µM in assay [8], 4.86 µM in [9] and 15.7 µM in [10].
In the case of `C=CCN1CC(=O)N2[C@@H](Cc3ccc(O)cc3F)C(=O)N(Cc3cccc(N4CC(N5CCN(CC)CC5)C4)n3)C[C@@H]2N1C(=O)NCc1ccccc1`, the GI50 in [1] was 0.111 µM; in [2], 0.0537 µM; in [3], 0.0324 µM; in assay [4] it was 0.0319 µM; in assay [5] it was 0.0359 µM; in assay [6], 2.19 µM. For the same molecule, the GI50 in assay [7] was 0.038 µM; in assay [8] it was 0.0648 µM; in assay [9], 0.16 µM; in assay [10], 0.0329 µM. Besides, the TGI was more than 100 µM in assay [1]; 16.2 µM in assay [2]; more than 100 µM in [3]; more than 100 µM in [4]; more than 100 µM in assay [5]; 32.8 µM in assay [6]. Besides, the TGI in assay [7] was more than 100 µM; in assay [8], 12.9 µM; in assay [9], more than 100 µM; in assay [10], more than 100 µM.
